Assays:
Type in all cases: in vivo
Echinochloa crus-galli = assay: Pre-emergence herbicidal efficacy, ECHCG; settings: Table B1, application rate 320 g/ha, scored visually after about 3 weeks vs untreated controls
Excerpt: (§1) C.1 Pre-Emergence Herbicidal Action and Crop Plant Compatibility
(§2) Seeds of monocotyledonous and dicotyledonous weed plants and crop plants are placed in plastic or organic planting pots and covered with soil. The compounds of the invention, formulated in the form of wettable powders (WP) or as emulsion concentrates (EC), are then applied onto the surface of the covering soil as aqueous suspension or emulsion with addition of 0.5% additive at a water application rate of […] (converted). After the treatment, the pots are placed in a greenhouse and kept under good growth conditions for the trial plants. After about 3 weeks, the effect of the preparations is scored visually in comparison with untreated controls as percentages. For example, 100% activity=the plants have died, 0% activity=like control plants.
(§3) ABUTH: Abutilon theophrasti ALOMY: Alopecurus myosuroides AMARE: Amaranthus retroflexus AVEFA: Avena fatua CYPES: Cyperus esculentus ECHCG: Echinochloa crus-galli LOLMU: Lolium multiflorum MATIN: Matricaria inodora PHBPU: Ipomoea purpurea POLCO: Polygonum convolvulus SETVI: Setaria viridis STEME: Stellaria media VERPE: Veronica persica VTOTR: Viola tricolor

Lolium rigidum = assay: Pre-emergence herbicidal efficacy, LOLRI; settings: Table B1, application rate 320 g/ha, scored visually after about 3 weeks vs untreated controls
Excerpt: C.1 Pre-Emergence Herbicidal Action and Crop Plant Compatibility Seeds of monocotyledonous and dicotyledonous weed plants and crop plants are placed in plastic or organic planting pots and covered with soil. The compounds of the invention, formulated in the form of wettable powders (WP) or as emulsion concentrates (EC), are then applied onto the surface of the covering soil as aqueous suspension or emulsion with addition of 0.5% additive at a water application rate of […] (converted). After the treatment, the pots are placed in a greenhouse and kept under good growth conditions for the trial plants. After about 3 weeks, the effect of the preparations is scored visually in comparison with untreated controls as percentages. For example, 100% activity=the plants have died, 0% activity=like control plants. […] Here, for example, compound Nos. I-214 and I-196, when applied pre-emergence, have very good activity (80% to 100% herbicidal activity) against harmful plants such as Abutilon theophrasti, Amaranthus retroflexus, Echinochloa crus-galli, Lolium rigidum, Matricaria inodora, Polygonum convolvulus, Setaria viridis, Stellaria media, Veronica persica and Viola tricolor at an application rate of 0.32 kg of active substance or less per hectare. At the same time, some of the compounds according to the invention leave Gramineae crops such as barley, wheat, rye, millet/sorghum, corn, rice or sugar cane virtually undamaged when applied pre-emergence, even at high active compound dosages. In addition, some substances are also harmless to dicotyledonous crops such as soya, cotton, oilseed rape or sugar beet.

Setaria viridis = assay: Pre-emergence herbicidal efficacy, SETVI; settings: Table B1, application rate 320 g/ha, scored visually after about 3 weeks vs untreated controls
Excerpt: as §1, §2, §3

Abutilon theophrasti = assay: Pre-emergence herbicidal efficacy, ABUTH; settings: Table B1, application rate 320 g/ha, scored visually after about 3 weeks vs untreated controls
Excerpt: as §1, §2, §3

Amaranthus retroflexus = assay: Pre-emergence herbicidal efficacy, AMARE; settings: Table B1, application rate 320 g/ha, scored visually after about 3 weeks vs untreated controls
Excerpt: as §1, §2, §3

Matricaria inodora = assay: Pre-emergence herbicidal efficacy, MATIN
Summary of the method: (§4)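 Seeds were sown in pots and covered with soil; WP or EC formulations were sprayed onto the soil surface as aqueous suspension or emulsion with 0.5% additive. Pots were kept in a greenhouse, and after about 3 weeks damage was rated visually as percent versus untreated controls (100% = plants dead, 0% = like control).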

Polygonum convolvulus = assay: Pre-emergence herbicidal efficacy, POLCO; settings: Table B1, application rate 320 g/ha, scored visually after about 3 weeks vs untreated controls
Excerpt: as §1, §2, §3

Stellaria media = assay: Pre-emergence herbicidal efficacy, STEME
Summary of the method: as §4

Viola tricolor = assay: Pre-emergence herbicidal efficacy, VIOTR
Summary of the method: as §4

Veronica persica = assay: Pre-emergence herbicidal efficacy, VERPE; settings: Table B1, application rate 320 g/ha, scored visually after about 3 weeks vs untreated controls
Excerpt: as §1, §2, §3

[1] = Table B1, application rate 320 g/ha, scored visually after about 3 weeks vs untreated controls
[2] = application rate 320 g/ha, scored visually after about 3 weeks

Row | SMILES | Herbicidal efficacy against ECHCG (Echinochloa crus-galli) [%] | Herbicidal efficacy against LOLRI (Lolium rigidum) [%] | Herbicidal efficacy against SETVI (Setaria viridis) [%] | Herbicidal efficacy against ABUTH (Abutilon theophrasti) [%] | Herbicidal efficacy against AMARE (Amaranthus retroflexus) [%] | Herbicidal efficacy against MATIN (Matricaria inodora; [1]) [%] | Herbicidal efficacy against POLCO (Polygonum convolvulus) [%] | Herbicidal efficacy against STEME (Stellaria media; [1]) [%] | Herbicidal efficacy against VIOTR (Viola tricolor; [1]) [%] | Herbicidal efficacy against VERPE (Veronica persica) [%] | Herbicidal efficacy against MATIN (Matricaria inodora; [2]) [%] | Herbicidal efficacy against STEME (Stellaria media; [2]) [%] | Herbicidal efficacy against VIOTR (Viola tricolor; [2]) [%]
1 | Cc1ccc2c(c1)[C@H](Nc1nc3n(n1)CCCS3)CCO2 [Example I-376] | 100 | 100 | 100 | 100 | 100 | 100 | 100 | 100 | 100 | 100 |  |  | 
2 | Cc1ccc2c(c1)C(Nc1nc3n(n1)CCC[S+]3[O-])C(C)C2 (stereo not drawn) [Example I-360] | 90 |  | 100 | 100 | 100 | 100 | 100 | 100 | 100 | 100 |  |  | 
3 | Cc1ccc2c(c1)[C@H](Nc1nc3n(n1)CCN(C(=O)C1CC1)C3)CCC2 [Example I-182] | 90 | 100 | 100 | 100 | 100 | 100 | 100 | 100 | 100 | 100 |  |  | 
4 | Cc1ccc2c(c1)[C@H](Nc1nc3n(n1)CCN(S(=O)(=O)C(C)C)C3)[C@@H](C)C2 [Example I-191] | 100 | 100 | 100 | 100 | 100 | 100 | 100 | 100 | 100 | 100 |  |  | 
5 | Cc1ccc2c(c1)C(Nc1nc3n(n1)CCCC[S+]3[O-])C(C)C2 (stereo not drawn) [Example I-371] | 100 | 100 | 100 | 100 | 100 | 100 | 100 | 100 | 100 | 100 |  |  | 
6 | Cc1ccc2c(c1)C(Nc1nc3n(n1)CCC(=O)N3CC1CCCCC1)CC2 (stereo not drawn) [Example I-256] | 90 | 80 | 100 | 100 | 100 | 100 | 100 | 100 | 100 | 100 |  |  | 
7 | Cc1ccc2c(c1)C(Nc1nc3n(n1)CCCC[S+]3[O-])CCC2 (stereo not drawn) [Example I-246] | 100 | 100 | 100 | 80 | 100 | 100 | 100 | 100 | 100 | 100 |  |  | 
8 | Cc1ccc2c(c1)C(Nc1nc3n(n1)CCC(=O)N3CC1CC1)CCC2 (stereo not drawn) [Example I-254] | 80 | 100 | 100 | 100 | 100 | 100 | 100 | 100 | 100 | 100 |  |  | 
9 | Cc1ccc2c(c1)[C@H](Nc1nc3n(n1)CCCCS3(=O)=O)CCO2 [Example I-381] |  | 100 | 100 | 100 | 100 | 100 | 100 | 100 | 100 | 100 |  |  | 
10 | Cc1ccc2c(c1)[C@H](Nc1nc3n(n1)CCCS3)CC2 [Example I-347] | 100 |  | 100 | 100 | 100 | 100 | 100 | 100 | 100 | 100 |  |  | 
11 | CC1CCc2ccccc2C1Nc1nc2n(n1)CCCCS2 (stereo not drawn) [Example I-356] | 100 | 100 | 100 |  | 100 | 100 | 100 | 100 | 100 | 100 |  |  | 
12 | CC(=O)N1CCCn2nc(NC3CCCc4ccc(C)cc43)nc21 (stereo not drawn) [Example I-321] |  | 100 |  | 80 | 100 | 100 | 90 | 100 | 100 | 100 | 100 | 100 | 100

From patent US20200331904A1, “3-AMINO-[1,2,4]-TRIAZOLE DERIVATIVES AND THEIR USE FOR CONTROLLING UNDESIRED PLANT GROWTH” (Bayer CropScience Aktiengesellschaft, priority 2017, published 2020)
